In patent US10563243B2, “Bioavailability of metal ions” (priority 2014, dated 2020):

What was measured:
[1] = cited from earlier work
[2] = tested on: mixture of Actinomyces viscosus, Lactobacillus casei, Streptococcus oralis, Fusobacterium nucleatum, and Veillnoella parvula; assay: Zinc/copper bioavailability assay: bacterial viability by resazurin fluorescence, oral bacterial mixture
Method: (This bacterial mixture simulates the complex flora of the oral environment.) Subsequently, the cells were washed and mixed with 5 μg/ml resazurin solution. The fluorescence of the samples was read at 560 nm excitation and at 590 nm emission, and compared to standardized mixtures of viable and non-viable bacteria in order to determine the percentage of the total bacterial population that remained viable after treatment. Each salt was tested at two different concentrations of zinc. The total amount of zinc was consistent between the different salts.
The amount of soluble zinc in each solution was also determined by centrifuging the solutions to remove insoluble zinc, and by testing the supernatant using ICP-AA (inductively coupled plasma with atomic absorption).

[3] = tested on: mixture of Escherichia coli (45%), Staphylococcus aureus (45%) and Serratia marcescens (10%); assay: Zinc bioavailability assay: bacterial viability by resazurin fluorescence, skin bacterial mixture; assay type: cell-based; conditions: Table 5; 0.4% ZnO, 0.8% Zn Citrate, or mix, in deionized water; Triclosan positive control
Method: The incubation and detection methods used were as described in Example 1. […] Triclosan was used as a positive antimicrobial control for the experiment.

[4] = Table 6, 0.5% elemental copper in deionized water
[5] = Table 7, 0.05% elemental copper in deionized water

| Compound | theoretical solubility in water [1] | % viable [2, 4] | % viable [2, 5] | % viable [3] | % viable ([2]; Table 2, zinc salt solution without added citrate) |
| --- | --- | --- | --- | --- | --- |
| Cu2O | insoluble |  |  |  |  |
| [O]=[Cu] [CuO] |  | 42.73% | 78.67% |  |  |
| [F][Cu][F] [CuF2] |  |  | 17.82% |  |  |
| [Cl][Cu][Cl] [CuCl2] | 75.7 g/100 ml | 1.89% | 11.99% |  |  |
| O=S(=O)([O-])[O-].[Cu+2] [CuSO4] | 20 g/100 ml | 5.82% | 13.98% |  |  |
| Oc1cc(Cl)ccc1Oc1ccc(Cl)cc1Cl [Triclosan, reference compound] |  |  |  | 18.83% |  |
| [O]=[Zn] [ZnO, zinc oxide] |  |  |  | 67.23% | 23.75% |
